Test system: Dkk1-LRP5-TCF-Luciferase
Assay: Functional Dkk1-LRP5-TCF-Luciferase Assay in U2OS Cells
Conditions: for EC50 / fold induction at 2 µM / fold induction at 20 µM: Homo sapiens, U2OS; for fold induction at 2 µM: read-out: B = TCF ACTIVITY/DMSO CONTROL Fold induction @ 2.0 uM, 2.0 uM compound; for A = MAX FOLD Induction/DMSO CONTROL: maximum fold induction over DMSO control; for fold induction at 20 µM: read-out: C = TCF ACTIVITY/DMSO CONTROL Fold induction @ 20.0 uM, 20.0 uM compound

| Structure (SMILES) | EC50 | fold induction at 2 µM | A = MAX FOLD Induction/DMSO CONTROL | fold induction at 20 µM |
| --- | --- | --- | --- | --- |
| Cc1ccc2cc(-c3ccnc(N4CCC(CN)CC4)n3)ccc2c1 [1-{1-[4-(6-methyl-2-naphthyl)pyrimidin-2-yl]piperidin-4-yl}methanamine] | 1.22 µM | 2.88 | 2.820 fold |  |
| CN(C)S(=O)(=O)N1CC[C@H](Nc2nccc(-c3ccc4ccccc4c3)n2)C1 [(3S)—N,N-dimethyl-3-{[4-(2-naphthyl)pyrimidin-2-yl]amino}pyrrolidine-1-sulfonamide] | 3.96 µM | 1.09 | 2.050 fold | 2.01 |
| c1ccc2cc(-c3ccnc(N4CCC(CN5CCCC5)C4)n3)ccc2c1 (centres unmarked) [4-(2-naphthyl)-2-[3-(pyrrolidin-1-ylmethyl)pyrrolidin-1-yl]pyrimidine] | 7.59 µM | 1.87 | 7.000 fold |  |
| CN(C)S(=O)(=O)N[C@H]1CCN(c2nccc(-c3ccc4ccccc4c3)n2)C1 [N,N-dimethyl-N′-{(3S)-1-[4-(2-naphthyl)pyrimidin-2-yl]pyrrolidin-3-yl}sulfamide] |  | 1.87 |  |  |
| c1ccc2cc(-c3ccnc(N4CC[C@@H](Cn5ccnc5)C4)n3)ccc2c1 [2-[(3S)-3-(1H-imidazol-1-ylmethyl)pyrrolidin-1-yl]-4-(2-naphthyl)pyrimidine] |  | 1.27 | 2.430 fold | 4.29 |
| CC(C)(C)OC(=O)NC1CCN(c2nccc(-c3ccc4ccccc4c3)n2)CC1 [tert-butyl {1-[4-(2-naphthyl)pyrimidin-2-yl]piperidin-4-yl}carbamate] |  | 0.93 |  | 1.91 |
| CC(C)COc1ccc2cc(-c3ccnc(N4CCC(CN)CC4)n3)ccc2c1 [1-{1-[4-(6-isobutoxy-2-naphthyl)pyrimidin-2-yl]piperidin-4-yl}methanamine] |  | 1.54 |  |  |
| CN(C)S(=O)(=O)N1CCC(Nc2nccc(-c3ccc4ccccc4c3)n2)CC1 [N,N-dimethyl-4-{[4-(2-naphthyl)pyrimidin-2-yl]amino}piperidine-1-sulfonamide] | 12 µM | 0.97 | 3.210 fold | 1.75 |
| CCNC(=O)N1CCC(CNc2nccc(-c3ccc4ccccc4c3)n2)CC1 [N-ethyl-4-({[4-(2-naphthyl)pyrimidin-2-yl]amino}methyl)piperidine-1-carboxamide] |  | 1.35 |  | 1.3 |
| CCN(CCO)[C@@H]1CCN(c2nccc(-c3ccc4ccccc4c3)n2)C1 [2-(ethyl{(3R)-1-[4-(2-naphthyl)pyrimidin-2-yl]pyrrolidin-3-yl}amino)ethanol] |  | 1.8 | 3.430 fold | 5.83 |
| c1ccc2cc(-c3ccnc(N4CC[C@H](NCCN5CCOCC5)C4)n3)ccc2c1 [(3S)—N-(2-morpholin-4-ylethyl)-1-[4-(2-naphthyl)pyrimidin-2-yl]pyrrolidin-3-amine] |  | 1.39 |  | 0.91 |
| CC(=O)N[C@@H]1CCN(c2nccc(-c3ccc4ccccc4c3)n2)C1 [N-{(3R)-1-[4-(2-naphthyl)pyrimidin-2-yl]pyrrolidin-3-yl}acetamide] |  | 1.62 | 1.610 fold | 0.2 |
| CCNC(=O)N1CCCN(c2nccc(-c3ccc4ccccc4c3)n2)CC1 [N-ethyl-4-[4-(2-naphthyl)pyrimidin-2-yl]-1,4-diazepane-1-carboxamide] | 12.7 µM |  | 1.640 fold | 2.58 |
| O[C@@H]1CCCN([C@H]2CCN(c3nccc(-c4ccc5ccccc5c4)n3)C2)C1 [(3R)-1-{(3S)-1-[4-(2-naphthyl)pyrimidin-2-yl]pyrrolidin-3-yl}piperidin-3-ol] |  |  |  | 2.9 |
| CN1CCN(CC2CCN(c3nccc(-c4ccc5ccccc5c4)n3)C2)CC1 (centres unmarked) [2-{3-[(4-methylpiperazin-1-yl)methyl]pyrrolidin-1-yl}-4-(2-naphthyl)pyrimidine] |  | 2.7 | 1.340 fold |  |
| CN(C)C(=O)N[C@H]1CC[C@H](Nc2nccc(-c3ccc4ccccc4c3)n2)CC1 [N,N-dimethyl-N′-(trans-4-{[4-(2-naphthyl)pyrimidin-2-yl]amino}cyclohexyl)urea] |  | 2.78 | 2.270 fold | 1.61 |
| O=C(N[C@H]1CCN(c2nccc(-c3ccc4ccccc4c3)n2)C1)c1ccccc1 [N-{(3S)-1-[4-(2-naphthyl)pyrimidin-2-yl]pyrrolidin-3-yl}benzamide] |  | 1.13 |  | 0.64 |
| CC(=O)NCC1CN(c2nccc(-c3ccc4ccccc4c3)n2)C1 [N-({1-[4-(2-naphthyl)pyrimidin-2-yl]azetidin-3-yl}methyl)acetamide] |  | 0.69 |  | 1.76 |
| c1ccc2cc(-c3ccnc(N4CC[C@H](N5CC6CCNC6C5)C4)n3)ccc2c1 (stereo partly drawn) [5-{(3S)-1-[4-(2-naphthyl)pyrimidin-2-yl]pyrrolidin-3-yl}octahydropyrrolo[3,4-b]pyrrole] |  | 2.2 |  |  |

| Structure (SMILES) | EC50 | fold induction at 2 µM | A = MAX FOLD Induction/DMSO CONTROL | fold induction at 20 µM |
| --- | --- | --- | --- | --- |
| CN(C)CCN[C@@H]1CCN(c2nccc(-c3ccc4ccccc4c3)n2)C1 [N,N-dimethyl-N′-{(3R)-1-[4-(2-naphthyl)pyrimidin-2-yl]pyrrolidin-3-yl}ethane-1,2-diamine] |  | 2.5 |  |  |
| CCN(CC)C(=O)N1CCC(Nc2nccc(-c3ccc4ccccc4c3)n2)CC1 [N,N-diethyl-4-{[4-(2-naphthyl)pyrimidin-2-yl]amino}piperidine-1-carboxamide] |  | 1.65 |  |  |
| O=C(N1CCCN(c2nccc(-c3ccc4ccccc4c3)n2)CC1)C(F)(F)F [1-[4-(2-naphthyl)pyrimidin-2-yl]-4-(trifluoroacetyl)-1,4-diazepane] |  |  |  | 1.24 |
| c1ccc(CNc2nccc(-c3ccc4ccccc4c3)n2)nc1 [4-(2-naphthyl)-N-(pyridin-2-ylmethyl)pyrimidin-2-amine] |  | 1.72 | 2.690 fold | 1.55 |
| CC(C)(C)NCC1CCN(c2nccc(-c3ccc4ccccc4c3)n2)CC1 [2-methyl-N-({1-[4-(2-naphthyl)pyrimidin-2-yl]piperidin-4-yl}methyl)propan-2-amine] | 10.6 µM | 1.49 | 3.890 fold | 5.76 |
| O=C1CCCN1[C@@H]1CCN(c2nccc(-c3ccc4ccccc4c3)n2)C1 [(3′R)-1′-[4-(2-naphthyl)pyrimidin-2-yl]-1,3′-bipyrrolidin-2-one] | 4.51 µM | 1.43 | 1.935 fold | 2.12 |
| CCN(CCO)C(=O)[C@@H]1CCCN1c1nccc(-c2ccc3ccccc3c2)n1 [N-ethyl-N-(2-hydroxyethyl)-1-[4-(2-naphthyl)pyrimidin-2-yl]-L-prolinamide] |  | 1.03 |  | 1.63 |
| O[C@@H]1CCN(CC2CCN(c3nccc(-c4ccc5ccccc5c4)n3)C2)C1 (stereo partly drawn) [(3R)-1-({1-[4-(2-naphthyl)pyrimidin-2-yl]pyrrolidin-3-yl}methyl)pyrrolidin-3-ol] |  | 1.2 |  |  |
| [N-]=[N+]=NCCC1CCN(c2nccc(-c3ccc4ccccc4c3)n2)CC1 [2-[4-(2-azidoethyl)piperidin-1-yl]-4-(2-naphthyl)pyrimidine] |  | 1 |  | 1.67 |
| CCNC(=O)NCCN1CCN(c2nccc(-c3ccc4ccccc4c3)n2)CC1 [N-ethyl-N′-(2-{4-[4-(2-naphthyl)pyrimidin-2-yl]piperazin-1-yl}ethyl)urea] |  | 1.09 |  | 0.28 |
| CN(C)c1cccc2c(S(=O)(=O)N[C@H]3CC[C@H](Nc4nccc(-c5ccc6ccccc6c5)n4)CC3)cccc12 [5-(dimethylamino)-N-(trans-4-{[4-(2-naphthyl)pyrimidin-2-yl]amino}cyclohexyl)naphthalene-1-sulfonamide] |  | 1.43 |  | 1.34 |
| OCC1CCN(c2nccc(-c3ccc4ccccc4c3)n2)CC1 [{1-[4-(2-naphthyl)pyrimidin-2-yl]piperidin-4-yl}methanol] |  | 1.81 |  | 0.02 |
| CN(C)C(=O)[C@@H]1CCCN1c1nccc(-c2ccc3ccccc3c2)n1 [N,N-dimethyl-1-[4-(2-naphthyl)pyrimidin-2-yl]-L-prolinamide] |  | 1 |  | 1.24 |
| CN(CCN(C)S(=O)(=O)c1ccccc1)[C@@H]1CCN(c2nccc(-c3ccc4ccccc4c3)n2)C1 [N-methyl-N-[2-(methyl{(3R)-1-[4-(2-naphthyl)pyrimidin-2-yl]pyrrolidin-3-yl}amino)ethyl]benzenesulfonamide] |  |  |  | 1.4 |
| CCNC(=O)NCC1CN(c2nccc(-c3ccc4ccccc4c3)n2)C1 [N-ethyl-N′-({1-[4-(2-naphthyl)pyrimidin-2-yl]azetidin-3-yl}methyl)urea] |  |  |  | 1.06 |
| CN(C)C(=O)N[C@H]1CCN(c2nccc(-c3ccc4ccccc4c3)n2)C1 [N,N-dimethyl-N′-{(3S)-1-[4-(2-naphthyl)pyrimidin-2-yl]pyrrolidin-3-yl}urea] |  | 0.94 |  | 1.65 |
| NC[C@H]1C[C@@H]2C[C@H]1CN2c1nccc(-c2ccc3ccccc3c2)n1 [1-{(1R,4R,5S)-2-[4-(2-naphthyl)pyrimidin-2-yl]-2-azabicyclo[2.2.1]hept-5-yl}methanamine] |  | 1.8 |  |  |
| CC(C)(C)NC(=O)[C@H]1CCCN1c1nccc(-c2ccc3ccccc3c2)n1 [N-tert-butyl-1-[4-(2-naphthyl)pyrimidin-2-yl]-D-prolinamide] |  | 1.16 |  | 0.6 |
| CC(=O)N[C@H]1CCN(c2nccc(-c3ccc4ccccc4c3)n2)C1 [N-{(3S)-1-[4-(2-naphthyl)pyrimidin-2-yl]pyrrolidin-3-yl}acetamide] | 6.88 µM | 1.02 | 4.375 fold | 1.5 |
